Structures can show the parent of a compound that is named as a salt.
Target: T1, human leukocyte elastase (Homo sapiens, UniProt P08246)
T1 sequence (P08246 30-267): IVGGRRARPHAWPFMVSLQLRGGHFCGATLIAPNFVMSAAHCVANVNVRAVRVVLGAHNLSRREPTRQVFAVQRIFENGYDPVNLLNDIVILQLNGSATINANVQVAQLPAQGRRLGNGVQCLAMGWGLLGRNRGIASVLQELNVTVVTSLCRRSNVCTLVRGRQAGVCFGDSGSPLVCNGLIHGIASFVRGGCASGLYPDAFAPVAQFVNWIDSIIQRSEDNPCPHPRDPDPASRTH
Assay: Human leukocyte elastase inhibitory activity (substrate MeOSuc-Ala-Ala-Pro-Val-pNA, microtiter plate progress curves)
Type: biochemical
Details: HLE, pH 7.8, 25° C., 500 mM NaCl
Experimental: The test compound (inhibitor) is dissolved in DMSO in a vial to produce an inhibitor stock solution which has a concentration in the range of 200-1000 μM. The inhibitor stock solution is diluted (1:4, 1:16 and 1:64) into assay vials (vials 1, 2 and 3 respectively) containing 2.4 mL of buffer solution (50 mM N- [2-hydroxyethyl ] piperazine-N'-[2-ethanesulfonic acid]/NaOH, 500 mM NaCl, pH 7.8 at 25° C.) and DMSO is added so that the total volume in each vial is 3.2 mL. 70 μL, 50 μL, 35 μL and 25 μL of inhibitor from assay vial 1 is placed into the first four wells of a 96-well microtiter plate and each well is made up to 90 μL total volume with the addition of a 25% DMSO/buffer solution. The inhibitor from assay vials 2 and 3 is processed in a similar manner and placed in wells 5-12 respectively to afford a total of 12 different inhibitor concentrations. Four wells (wells 13-16) containing 90 μL of the 25% DMSO/buffer solution but no inhibitor are also run simultaneously with the inhibited wells as a control. 150 μL of substrate solution (prepared by the addition of 500 μL of the human leukocyte elastase (HLE) substrate MeOSuc-Ala-Ala-Pro-Val-pNA (18.7 mM in DMSO) to 19.5 mL of buffer solution) is then added simultaneously into each of the 16 wells and the solution in each well was thoroughly mixed.
The 96-well microtiter plate is placed into a Microplate Reader #89815A spectrophotometer and 110 μL of the enzyme solution (prepared as follows: a mixture of 20 mL of buffer solution and 20 mg of bovine serum albumen is gently vortexed in a scintillation vial and 5 μL HLE stock solution (1 mg/mL dissolved in deionized water) is added) is added simultaneously to each of the 16 wells. Each of the solutions in the wells is throughly mixed and then the time-dependent absorbance data is collected at an absorbance of 410 nm until the assay is complete. It should be noted that although this assay method can be done manually, it is preferred to perform the assay robotically using a Hewlett Packard MicroAssay System Robot.
A plot of the absorbance versus time data thus obtained affords progress curves the final slope of which is equal to the final steady-state velocities (VF). Using the program ENZFITTER (Elsevier software), the progress curves for the four control assays ([I]=0) are fit by linear regression to yield the enzyme reaction velocity values in the absences of inhibitor (Vo) which are averaged to produce a single fixed value. The inhibition constant Ki (nM) is then obtained from a plot of [formula] which affords a linear plot wherein: [formula] and [S] is the concentration of the substrate and Km is the Michaelis constant.
Table II summarizes the results obtained from the testing of representative compounds of the invention for human leukocyte elastase inhibitory activity.

SMILES	Ki [nM]
CC(C)CCC1C(=O)N(COC(=O)c2c(Cl)ccc(OCCN3CCOCC3)c2Cl)S(=O)(=O)N1C (stereo not shown) [10(b), 2-(2,6-dichloro-3-[2-(4-morpholino)ethoxy]phenyl-carbonyloxymethyl)-4-(3-methylbutyl)-5-methyl-1,2,5-thiadiazolidin-3-one 1,1-dioxide]	0.2
CC(C)C1NS(=O)(=O)N(COC(=O)c2c(Cl)cccc2Cl)C1=O (stereo not shown) [2(f), 2-(2,6-dichlorophenylcarbonyloxymethyl)-4-isopropyl-1,2,5-thiadiazolidin-3-one 1,1-dioxide]	350
CC(C)CCC1C(=O)N(COC(=O)c2c(Cl)ccc(OCCN3CCCC3)c2Cl)S(=O)(=O)N1C (stereo not shown) [9(c), 2-(2,6-dichloro-3-(2-pyrrolidinoethoxy)phenylcarbonyloxymethyl)-4-(3-methylbutyl)-5-methyl-1,2,5-thiadiazolidin-3-one 1,1-dioxide hydrochloride]	0.26
CCCC1C(=O)N(COC(=O)c2c(Cl)cccc2Cl)S(=O)(=O)N1C (stereo not shown) [3(i), 2-(2,6-dichlorophenylcarbonyloxy-methyl)-4-propyl-5-methyl-1,2,5-thiadiazolidin-3-one 1,1-dioxide]	0.11
CN1C(Cc2ccccc2)C(=O)N(COC(=O)c2c(Cl)cccc2Cl)S1(=O)=O (stereo not shown) [11(g), 2-(2,6-dichloro-phenylcarbonyloxymethyl)-4-phenylmethyl-5-methyl-1,2,5-thiadiazolidin-3-one 1,1-dioxide]	0.62
CCCC1(C)C(=O)N(COC(=O)c2c(Cl)cccc2Cl)S(=O)(=O)N1C (stereo not shown) [6(k), 2-(2,6-dichlorophenylcarbonyloxymethyl)-4-methyl-4-propyl-5-methyl-1,2,5-thiadiazolidin-3-one 1,1-dioxide]	120
CCCC1C(=O)N(COC(=O)c2c(Cl)cccc2Cl)S(=O)(=O)N1CC (stereo not shown) [5(e), 2-(2,6-dichloro-phenylcarbonyloxymethyl)-4-propyl-5-ethyl-1,2,5-thiadiazolidin-3-one 1,1-dioxide]	0.5
CN1C(CCC(C)(C)Cl)C(=O)N(COC(=O)c2c(Cl)cccc2Cl)S1(=O)=O (stereo not shown) [7(h), 2-(2,6-dichlorophenylcarbonyloxymethyl) -4-(3-methyl-3-chlorobutyl)-5-methyl-1,2,5-thiadiazolidin-3-one 1,1-dioxide]	4.4
O=C(OCN1C(=O)C2CCCN2S1(=O)=O)c1c(Cl)cccc1Cl (stereo not shown) [14(f), 2-(2,6-dichlorophenylcarbonyloxymethyl) tetrahydropyrrolo[1,2-b]-1,2,5-thiadiazol-3(2H)-one 1,1-dioxide]	170
O=C(OCN1C(=O)C2CCCCN2S1(=O)=O)c1c(Cl)cccc1Cl (stereo not shown) [13(f), 2-(2,6-dichlorophenylcarbonyloxymethyl)-1,2,5-thiadiazolo [2,3-a]3,3a,4,5,6,7-hexahydropyridine-3-one 1:1-dioxide]	22
CCCC1CCCN2C1C(=O)N(COC(=O)c1c(Cl)cccc1Cl)S2(=O)=O (stereo not shown) [16(j), 2-(2,6-dichlorophenylcarbonyloxymethyl)-4-propyl-1,2,5-thiadiazolo [2,3-a]3,3a, 4,5,6,7-hexahydropyridine-3-one 1,1-dioxide]	9.6
O=C(OCN1C(=O)C2C3CCC(C3)N2S1(=O)=O)c1c(Cl)cccc1Cl (stereo not shown) [15(i)]	3700
CC(C)C1C(=O)N(COC(=O)c2c(Cl)cccc2Cl)S(=O)(=O)N1C (stereo not shown) [4(f), 2-(2,6-dichlorophenylcarbonyloxymethyl)-4-isopropyl-5-methyl-1,2,5-thiadiazolidin-3-one 1,1-dioxide]	25
CCCC1NS(=O)(=O)N(COC(=O)c2c(Cl)cccc2Cl)C1=O (stereo not shown) [1(f), 2-(2,6-dichlorophenylcarbonyloxymethyl)-4-propyl-1,2,5-thiadiazolidin-3-one 1,1-dioxide]	12
CC(C)CCC1C(=O)N(COC(=O)c2c(Cl)cccc2Cl)S(=O)(=O)N1C (stereo not shown) [8(i)]	0.06
CCCC1C(=O)N(COC(=O)c2c(Cl)ccc(OCCN3CCOCC3)c2Cl)S(=O)(=O)N1CC (stereo not shown) [Example 12, 2-(2,6-dichloro-3-[2-(4-morpholino]ethoxy]-phenylcarbonyloxymethyl)-4-propyl-5-ethyl-1,2,5-thiadiazolidin-3-one 1,1-dioxide methanesulfonate]	0.45
